Data published in patent US20120041058A1, “COMPOSITION OF TRADITIONAL CHINESE MEDICINE FOR REDUCING BLOOD FAT AND PREPARATION METHOD THEREOF” (ANJI GREEN LIFE BIOTECH CO., LTD., priority 2009, published 2012).

Tested on: acute high-lipid mouse model
Experiment: Acute high-lipid mouse model resulted from egg yolk emulsion injection: serum cholesterol and triglycerides
Type: in vivo, ICR mice
Conditions: for T-cho / Trig: ICR mice, oral 1 time/d for 14 d, blood 20 h after ip 75% egg yolk emulsion; for T-cho / Trig / Reduction rate of cholesterol / Reduction rate of triglyceride: dose 2 mg/mouse; for Reduction rate of cholesterol / Reduction rate of triglyceride: vs model mouse group, 14 d; for blood-lipid-lowering effect on the mouse model of high blood lipid caused by the egg yolk emulsion: after two weeks of oral administration, result in words
Description: The Treatment Efficiency of Blood-Lipid-Lowering Traditional Chinese Medicine Compositions Having Different Component Proportions on the Acute High-Lipid Mouse Models Resulted from Egg Yolk Emulsion Injection Male ICR mice of 20 g˜22 g are divided into several groups after 5 d adaptive feeding: control group, fed with normal saline; model group, fed with normal saline; positive control group, fed with Xuezhikang of 1000 mg/kg.

SMILES | T-cho | Trig | Reduction rate of cholesterol | Reduction rate of triglyceride | blood-lipid-lowering effect on the mouse model of high blood lipid caused by the egg yolk emulsion
C[C@@H]1CC[C@H]2[C@@H](C)C(=O)O[C@@H]3O[C@@]4(C)CC[C@@H]1[C@]32OO4 [Artemisinin, artemisinin] | 6.10 ± 3.20 mmol/L | 8.90 ± 4.00 mmol/L | 25.1% | 12.9% | –
C[C@H]1[C@H](OC(=O)CCC(=O)O)O[C@@H]2O[C@@]3(C)CC[C@H]4[C@H](C)CC[C@@H]1[C@@]24OO3 [Artesunate, artesunate] | 8.32 ± 1.09 mmol/L | 10.72 ± 2.68 mmol/L | −2.21% | −4.89% | neither ursolic acid nor artesunate had the blood-lipid-lowering effect
C[C@H]1[C@H](C)CC[C@]2(C(=O)O)CC[C@]3(C)C(=CC[C@@H]4[C@@]5(C)CC[C@H](O)C(C)(C)[C@@H]5CC[C@]43C)[C@H]12 [Ursolic acid, ursolic acid] | 9.11 ± 1.49 mmol/L | 13.37 ± 3.63 mmol/L | −11.92% | −30.82% | neither ursolic acid nor artesunate had the blood-lipid-lowering effect
